“Also recorded” adds a separate entry of the source. Where two headings read alike, the source gives them in different places.
Assays:
Format in all cases: cell-based
[1] = test system: Colletotrichum graminicola (CGR); details: polypeptide, standard plate assay, 4,000 spores per mL, ¼× Czapec-Dox V8, 28° C., 24 to 48 hours, scored with inverted microscope
[2] = test system: Fusarium graminearum (FGR); details: for antifungal activity against FGR: polypeptide, standard plate assay, 4,000 spores per mL, ¼× potato dextrose broth, 28° C., 24 to 48 hours, scored with inverted microscope
[3] = test system: Fusarium verticillioides (FVE)
Diplodia maydis (DMA) = details: polypeptide, standard plate assay, 6,000 spores per mL, ¼× potato dextrose broth, 28° C., 24 to 48 hours, scored with inverted microscope

Substance	antifungal activity against CGR [1]	antifungal activity against FGR [2]	antifungal activity against FVE [3]	antifungal activity against FVE (HPLC fraction screen) [3]	antifungal activity against DMA (Diplodia maydis (DMA))	antifungal activity against CGR ([1]; listed as SEQ ID NO: 1)	antifungal activity against FGR (HPLC fraction screen) ([2]; dried HPLC fractions, 4,000 spores/mL in ¼× potato dextrose broth, 27° C. for 24 hours)	antifungal activity against FGR ([2]; listed as SEQ ID NO: 1)	antifungal activity against DMA (Diplodia maydis (DMA); listed as SEQ ID NO: 1)
SEQ ID NO:3: mature antifungal polypeptide LB-12922 isolated from Penicillium citreonigrum fermentation broth (LSCYPSCMQNYCSHPRCFLHATCLSYSHCHVCGTRKVCL; PEPTIDE (1)...(39) Predicted mature LB-12922 peptide; listed as Penicillium citreonigrum)	display antifungal activity	display antifungal activity	display antifungal activity	found to have activity	display antifungal activity				
SEQ ID NO:1: mature antifungal polypeptide LB-09812, 33 amino acids, from Penicillium glandicola fermentation broth; also expressed in E. coli and HPLC-purified (ALHNSCSHPRCFNHAHCLTYSHCHVCSSRKRCL; PEPTIDE (1)...(33) Predicted mature LB-09812 peptide; listed as Penicillium glandicola)	display antifungal activity	display antifungal activity	exhibited antifungal activity; also recorded: display antifungal activity		display antifungal activity	exhibited antifungal activity	found to have activity	exhibited antifungal activity	exhibited antifungal activity
